Results taken from patent EP0371366A1, “Antiviral agents” (priority 1988, dated 1990).
Where two headings read alike, the source gives them in different places. Marks after values point to notes of the source that are not given here. Each block holds one compound with its values, some of them ahead of it.

How the values were obtained:
HIV = conditions: background statement on prior art; cited from earlier work
[1] = background statement on prior art; cited from earlier work
[2] = test system: Erythroid Colonies, CFU-E; test: CFU-E assay (late erythroid precursors), human hematopoietic cell toxicity; format: cell-based
Excerpt: (§1) This procedure is a modification of procedures initially described by Diainiak, et al., British Journal of Haematology, 69, 229-304 (1988), or as described by Sommadossi, et al., Agents and Chemotherapy, 31-(3), 452-454 (1987).
(§2) The effect of 4 -azidothymidine and AZT on the formation of erythroid and GM colonies from precursors in human peripheral blood and bone marrow were compared; from which the inhibition of 4 -azidothymidine and AZT against human hematopoietic cells were compared.
In each experiment peripheral blood or bone marrow from a single donor was used. […]
MN were cultured at a concentration of 3 x 10^5 cells/ml. The culture medium consisted of Iscove's Modified Eagle Medium (Gibco) supplemented with 30% heat-inactiviated FCS (Hyclone), penicillin ([…]), streptomycin ([…]), 2-mercaptoethanol (1 x 10^-4, 1% deionized bovine serum albumin (BSA, Sigma), DEAE-Dextran 40 mg/ml (Pharmacia), 0.8% methylcellulose (4000 Centipose, Fisher), and erythropoietin 2 U/ml (Connaught Laboratories). Cells were plated in 96-well plates ([…]) and incubated at 37^*C with 5% C02 in air (100% humidity) for 7-14 days. CFU-E colonies were counted on Days 7-8. Clusters of 8 or more hemoglobinized cells were considered as a colony. BFU-E colonies were counted on Day 14. Aggregates of 50 or more cells were counted as a colony. […]

[3] = test system: Granulocyte-Macrophage Colonies (CFU-GM); test: CFU-GM assay (myeloid precursors), human hematopoietic cell toxicity; format: cell-based
Excerpt: as §1, §2
In each experiment peripheral blood or bone marrow from a single donor was used. Human peripheral blood mononuclear cells (PBL) were separated from heparinized blood of drug-free donors by density-gradient centrifugation in Ficoll (Pharmacia). Whole blood diluted 1:1 with Hanks' balanced salt solution (HBSS, Gibco) was layered on the top of Ficoll and centrifuged at 400 x g for 30 min. Cells were collected from the interphase and after washing, the concentration was adjusted to 2x10^6 cells/mL in RPMI-1640 medium with 25 mM Hepes buffer (Gibco). Monocytes were removed by adherence to plastic in large Petri dishes (150x15mm), adding 20 ml of the cell suspension/dish, and incubating for 1 hour at 37° C. Nonadherent mononuclear cells (MN) were removed by vigorous washing of the Petri dish with warm (37°C) HBSS.
Bone marrow aspirates from healthy donors were collected in heparizined syringes. The whole mononuclear cell fraction was separated by Ficoll-Paque density-gradient centrifugation (400 x g for 30 min). Cells collected from the interphase were washed 3 times in HBSS and resuspended in culture medium as described below for CFU-GM assay.
MN (1.5x10^6 cells/ml) and BM (1.x10^5 cells/ml) were cultured in complete medium as follows: Dulbecco's Modified Eagle Medium (DMEM, Gibco) supplemented with 20% heat-inactivated fetal calf serum (FCS, Hyclone), 2 mM L-glutamine, 5 x 10-^5 M 2-mercaptoethanol, penicillin (100 U/ml), streptomycin ([…]), and 0.3% bacto-agar (Difco). All supplements were from Gibco, unless otherwise specified. Cells were plated in 35x100 mm Lux Petri dishes (suspension dishes) in triplicate, and incubated at 37°C with 5% CO2 in air at 100% humidity. A supernatant from a T-cell line (GCT, Gibco), containing GM-Colony Stimlating Factor (GM-CSF), was used at a final concentration of 10% in complete medium. Tested compounds were added to the test dishes at concentrations of 10-^9 to 10-^4 M. Cells were incubated in air containing 5% CO2 (100% humidity) at 37°C for 14 days. Colonies were counted under a dissecting microscope. A CFU-GM colony was defined as a cluster of 50 or more cells consisting of granulocytes, monocyte-macrophages, or both.
All tests were performed in triplicate. The 50% inhibitory concentrations (ICso) for all types of colonies were determined using an RS 1 program on an IBM-PC.

[4] = Cytotoxicity in uninfected A301 (Alex) cells; format: cell-based; conditions: human, read-out: Cell Toxicity Partial
Protocol: (§3) A301 (Alex) cells are pre-infected with a constant amount of HIV (LAV Strain) for three hours at 37° C. Test compounds and AZT (control) are added to the infected cells in two, three or five-fold dilutions, out four places for screening and eight places for confirmation. Unless mentioned the highest concentration is […]. The test plates are incubated in C02 at 37` C for up to twelve days (incubation time depends on virus pool titer) with a partial medium/sample change midpoint through the incubation period. Uninfected A301 cells with sample dilutions, but without virus, are used to evaluate cytotoxicity.

Uninfected A301 cells = test: Cytotoxicity in uninfected A301 (Alex) cells; format: cell-based
Protocol: as §3

[5] = test system: Friend leukemia virus complex (FLVC); format: in vivo, Balb/c mice; conditions: daily dose 120 mg/kg i.p. for 9 days
Protocol: This procedure is a modification of a procedure initially described by Jones et al., Journal of Virology, 62 (2), 511-51,8 (1988), or by modifications thereof.
Friend leukemia virus complex (FLVC) was used. This retrovirus complex consists of both helper and defective virus particles.
Six week old female Balb/c mice from Bantin and Kingman, each weighing on the average of 18 gm, received 0.2ml of a solution (comprised of virus diluted in PBS containing 0.002 M EDTA) administered at 20 FFU/mouse, intravenously. Treatments began 4 hours after infection and continued for 9 days. AZT and 4'-azidothymidine were administered at 60 mg/kg/dose twice daily on Days 0, 4, and 5; and on Days 1-3 and 6-8 were administered 3 times daily at 40 mg/kg/dose. 2 3 -Dideoxycytidine was administered at 120 mg/kg/dose twice daily on days 0, 4, and 5; and on days 1-3 and 6-8 was administered 3 times daily at 80 mg/kg/dose. All treatments were given intraperitoneally, 0.5mi/dose. On day 9 after infection the spleens were removed, stained and fixed in Bouin's solution for 2 hours and then weighed. Foci were counted on spleens. A standard t-test was run to compare difference in spleen weights and difference in number of foci-forming units (FFU's) per spleen between groups.

HIV (LAV Strain) = test: Antiviral activity in HIV-infected A301 (Alex) cells, reverse transcriptase level readout; format: cell-based; conditions: Human immunodeficiency virus 1
Protocol: This procedure is a modification of a procedure initially described by Chen et al., Biochemical Pharmacology. 36 (24), 4361-4362 (1987).
as §3
Reverse transcriptase levels are assayed at the end of the incubation period as follows, to determine if antiviral activity is present.
[…] of medium from the HIV infected Alex cells is added to 10 mL of 3.2% Triton X-100. This solution is incubated for 30 minutes at 37° C, then 25 mL of 4X assay mix is added to it. The 4X assay mix contains [^3H]TTP, poly(A).oligo(dT), potassium chloride, magnesium chloride, dithiothreitol, and Tris-HCI buffer, pH8.0. […] The radioactivity remaining on the 3MM paper is quantitated by scintillation counter, and corresponds to reverse transcriptase level.

SMILES: [N-]=[N+]=N[C@]1(CO)O[C@@H](n2ccc(N)nc2=O)[C@H](O)[C@@H]1O [4 -azidocytidine]
- anti-HIV activity (HIV): devoid of anti-HIV activity
- cytotoxicity [1]: cytotoxic

SMILES: Cc1cn([C@H]2C[C@H](O)[C@](CO)(N=[N+]=[N-])O2)c(=O)[nH]c1=O [Compound 1]
- IC50 ([2]; PBM (3 experiments)): > 100 µM
- IC50 ([3]; bone marrow, experiment 1, read-out: IC50 BM 1): 21.1 µM
- IC50 ([3]; bone marrow, experiment 2, read-out: IC50 BM 2): 13.6 µM
- IC50 ([3]; peripheral blood mononuclear cells, five separate experiments, read-out: IC50 PBM Mean ±SE): 20.7 ± 1.73 µM

- EC50 (HIV (LAV Strain); A301 (Alex) cells pre-infected with HIV (LAV Strain), reverse transcriptase levels at end of incubation, read-out: EC50): 0.01 µM
SMILES: Cc1cn([C@H]2C[C@H](O)[C@](CO)(N=[N+]=[N-])O2)c(=O)[nH]c1=O [4'-azidothymidine]
- MCC [4]: 8 µM
- Cell Toxicity Complete (Uninfected A301 cells): 200 µM
- Inhibition of Splenomegaly [5]: 75%
- FFU/Spleen ([5]; Day 9): ≥26 FFU/Spleen
- Spleen Weight ([5]; weighed on Day 9 after infection): 0.190^d gm
- IC50 ([2]; BM (1 experiment)): 27 µM
- IC50 ([3]; bone marrow, experiment 1, listed as 2, read-out: IC50 BM 1): 2.01 µM
- IC50 ([3]; bone marrow, experiment 2, listed as 2, read-out: IC50 BM 2): 0.9 µM
- IC50 ([3]; peripheral blood mononuclear cells, five separate experiments, listed as 2, read-out: IC50 PBM Mean ±SE): 4.83 ± 1.42 µM

SMILES: Cc1cn([C@H]2C[C@H](N=[N+]=[N-])[C@@H](CO)O2)c(=O)[nH]c1=O [3'-azidothymidine, reference compound]
- MCC [4]: 825 µM
- Cell Toxicity Complete (Uninfected A301 cells): 3300 µM
- EC50 (HIV (LAV Strain)): 0.01 µM
